Common to all, as to assay type: ADME, organism-based
Series [1] concerns Aspergillus niger. In words: Drug degradation in Aspergillus niger van Tieghem grown on sucrose-containing Czapek-Dox medium at 100 ppm after 7 days. Conditions: 168 h.
Series [2] relates to Aspergillus niger. The series can be described thus: Drug degradation in Aspergillus niger van Tieghem grown on sucrose-containing Czapek-Dox medium at 20 ppm after 7 days. To be noted: 168 h.
The subject of series [3] is Aspergillus niger. The series can be described thus: Drug degradation in Aspergillus niger van Tieghem at 20 ppm after 36 hr at 30 degC.
Series [4] deals with Aspergillus niger. The series can be described thus: Drug degradation in Aspergillus niger van Tieghem grown on Czapek-Dox medium at 20 ppm after 36 hr at 30 degC in presence of 0.01 g/l NaNO3.
In series [5] the test system is Aspergillus niger. In words: Drug degradation in Aspergillus niger van Tieghem grown on Czapek-Dox medium at 20 ppm after 36 hr at 30 degC in presence of 0.5 to 2 g/l NaNO3.
For series [6], the system named is Aspergillus niger. In words: Drug degradation in Aspergillus niger van Tieghem grown on Czapek-Dox medium at 20 ppm after 36 hr at 30 degC in presence of 1 g/l NaNO3.

For `CCNc1nc(NC(C)C)nc(SC)n1` [AMETRYNE], the Stability entry in the series with Aspergillus niger [1] is “Stable”.

Consider `CCCCOCN(C(=O)CCl)c1c(CC)cccc1CC` [BUTACHLOR], for which the Stability result in the series on Aspergillus niger [2] is reported as “Unstable”.

For `CCSC(=O)N1C=CC=CC=C1` [S-ETHYLAZEPINE-1-CARBOTHIOATE], in the series on Aspergillus niger [1], the Stability entry is “Unstable”.

For the molecule `CCN(CC)C(=O)SCc1ccc(Cl)cc1` [THIOBENCARB], the Stability entry in the series with Aspergillus niger [3], in the series with Aspergillus niger [4], in the series on Aspergillus niger [5] and in the series on Aspergillus niger [6] was “Unstable” each time.

(Values after ChEMBL document CHEMBL3044688, “Degradation of the Herbicides Thiobencarb, Butachlor and Molinate by a Newly Isolated Aspergillus niger” (J Pestic Sci, 2004).)
